In general, Kd refers to the free concentration of one partner at which half of the binding sites on the other are occupied at equilibrium, for simple one-to-one binding. Low readings indicate higher affinity, high ones lower affinity.

This is an account of results in paper PMC9721090 (FASEB BioAdvances, 2022).

Structures can show the parent of a compound that is named as a salt.

In assay [1] the target is T1, β2AR-βarr2 (Homo sapiens, UniProt P07550+P32121). Kind of assay: ERK1/2 phosphorylation. The following applies: t β2AR-βarr2 HEK 293; PTX 100ng/ml overnight. Format: cell-based.
In another assay the target is β2AR-Gαs (Homo sapiens, UniProt P07550). Kind of assay: Saturation binding of [3H] DHA, membranes of t β2AR-Gαs HEK 293 cells.
The target in assay [2] is T1, β2AR-βarr2. Kind of assay: Saturation binding of [3H] DHA, membranes of t β2AR-βarr2 HEK 293 cells.
The next assay has as its target β2AR (Homo sapiens, UniProt P07550). Format: binding.

Sequence of β2AR (P07550 whole entry): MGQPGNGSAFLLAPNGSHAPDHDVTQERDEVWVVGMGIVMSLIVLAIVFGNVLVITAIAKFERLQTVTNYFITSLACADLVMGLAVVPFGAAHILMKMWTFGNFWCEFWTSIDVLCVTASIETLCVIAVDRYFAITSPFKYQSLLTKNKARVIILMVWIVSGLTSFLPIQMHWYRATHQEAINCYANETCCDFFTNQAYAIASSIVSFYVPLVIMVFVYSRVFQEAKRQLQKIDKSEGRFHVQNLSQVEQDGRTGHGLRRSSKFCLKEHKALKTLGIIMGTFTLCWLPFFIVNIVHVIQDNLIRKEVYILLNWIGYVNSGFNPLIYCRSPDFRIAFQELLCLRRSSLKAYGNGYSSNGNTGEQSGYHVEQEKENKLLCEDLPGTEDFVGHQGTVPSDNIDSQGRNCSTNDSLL

pertussis toxin: the “effect on constitutive ERK1/2 phosphorylation” value with β2AR-βarr2 [1] is recorded as “no effect”.
Take `CCCc1ccccc1OC[C@@H](O)CNC(C)C` [[3H] dihydroalprenolol, Dihydroalprenolol hydrochloride, levo‐[ring, propyl‐^3H(N)]‐]: the values for the dissociation constant (Kd) on β2AR-Gαs, on β2AR-βarr2 [2] and at β2AR were 0.213 ± 0.049 nM, 0.233 ± 0.022 nM and 0.148 ± 0.028 nM, respectively.
